Measurements: PubChem BioAssay (NCI)
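GI50 marks 50% less growth. TGI marks complete inhibition of growth.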

Legend:
Test in all cases: growth of human tumour cells (NCI), 384-well format
SF-295 CNS = system: SF-295 CNS
HOP-62 NSCLC = system: HOP-62 NSCLC
MDA-MB-435 melanoma = system: MDA-MB-435 melanoma
A549 NSCLC = system: A549 NSCLC
HCT-15 colon = system: HCT-15 colon
SK-MEL-28 melanoma = system: SK-MEL-28 melanoma
CAKI-1 renal = system: CAKI-1 renal
RPMI-8226 leukemia = system: RPMI-8226 leukemia
HCC-2998 colon = system: HCC-2998 colon
UACC-62 melanoma = system: UACC-62 melanoma
SK-MEL-5 melanoma = system: SK-MEL-5 melanoma
SW-620 colon = system: SW-620 colon
OVCAR-5 ovarian = system: OVCAR-5 ovarian
HOP-92 NSCLC = system: HOP-92 NSCLC
HCT-116 colon = system: HCT-116 colon
DU-145 prostate = system: DU-145 prostate
HT29 colon = system: HT29 colon
U251 glioblastoma = system: U251 glioblastoma
OVCAR-8 ovarian = system: OVCAR-8 ovarian
CCRF-CEM leukemia = system: CCRF-CEM leukemia
SK-OV-3 ovarian = system: SK-OV-3 ovarian
MDA-MB-231 breast = system: MDA-MB-231 breast
MDA-MB-468 breast = system: MDA-MB-468 breast
NCI-H522 lung = system: NCI-H522 lung
MALME-3M melanoma = system: MALME-3M melanoma
NCI-H226 lung = system: NCI-H226 lung
SN12C renal = system: SN12C renal
TK-10 renal = system: TK-10 renal
NCI-H460 NSCLC = system: NCI-H460 NSCLC
HS 578T breast = system: HS 578T breast
IGROV1 ovarian = system: IGROV1 ovarian
786-0 renal = system: 786-0 renal
NCI-H23 lung = system: NCI-H23 lung
ACHN renal = system: ACHN renal
RXF 393 renal = system: RXF 393 renal
COLO 205 colon = system: COLO 205 colon
SNB-75 CNS = system: SNB-75 CNS
LOX IMVI melanoma = system: LOX IMVI melanoma
NCI-H322M lung = system: NCI-H322M lung
MCF7 breast = system: MCF7 breast
NCI/ADR-RES ovarian = system: NCI/ADR-RES ovarian
EKVX NSCLC = system: EKVX NSCLC
KM12 colon = system: KM12 colon
PC-3 prostate = system: PC-3 prostate
BT-549 breast = system: BT-549 breast
M14 melanoma = system: M14 melanoma
MOLT-4 leukemia = system: MOLT-4 leukemia
SF-268 CNS = system: SF-268 CNS
OVCAR-4 ovarian = system: OVCAR-4 ovarian
A498 renal = system: A498 renal
OVCAR-3 ovarian = system: OVCAR-3 ovarian
K-562 leukemia = system: K-562 leukemia
HL-60(TB) leukemia = system: HL-60(TB) leukemia
SF-539 CNS = system: SF-539 CNS
UO-31 renal = system: UO-31 renal
T-47D breast = system: T-47D breast
UACC-257 melanoma = system: UACC-257 melanoma
SNB-19 CNS = system: SNB-19 CNS

Cc1nnn(C)c1-c1cnc2c3ccc(C(C)(C)O)cc3n([C@H](c3ccccc3)C3CCOCC3)c2c1
GI50 (SF-295 CNS): 0.38 µM
TGI (SF-295 CNS): 17 µM
GI50 (HOP-62 NSCLC): < 0.01 µM
TGI (HOP-62 NSCLC): 2.77 µM
GI50 (MDA-MB-435 melanoma): 0.0431 µM
TGI (MDA-MB-435 melanoma): 61.7 µM
GI50 (A549 NSCLC): < 0.01 µM
TGI (A549 NSCLC): 13 µM
GI50 (HCT-15 colon): 0.0139 µM
TGI (HCT-15 colon): 1.32 µM
GI50 (SK-MEL-28 melanoma): 0.0899 µM
TGI (SK-MEL-28 melanoma): 24.2 µM
GI50 (CAKI-1 renal): < 0.01 µM
TGI (CAKI-1 renal): 3.96 µM
GI50 (RPMI-8226 leukemia): < 0.01 µM
GI50 (HCC-2998 colon): < 0.01 µM
TGI (HCC-2998 colon): 0.0497 µM
GI50 (UACC-62 melanoma): < 0.01 µM
TGI (UACC-62 melanoma): 0.146 µM
GI50 (SK-MEL-5 melanoma): < 0.01 µM
TGI (SK-MEL-5 melanoma): 1.11 µM
GI50 (SW-620 colon): 1.74 µM
TGI (SW-620 colon): 17.4 µM
GI50 (OVCAR-5 ovarian): < 0.01 µM
TGI (OVCAR-5 ovarian): 12.6 µM
GI50 (HOP-92 NSCLC): 0.0253 µM
TGI (HOP-92 NSCLC): 14.5 µM
GI50 (HCT-116 colon): 0.0242 µM
TGI (HCT-116 colon): 12.8 µM
GI50 (DU-145 prostate): 0.753 µM
TGI (DU-145 prostate): 22.1 µM
GI50 (HT29 colon): < 0.01 µM
TGI (HT29 colon): 15.1 µM
GI50 (U251 glioblastoma): 0.315 µM
TGI (U251 glioblastoma): 12.7 µM
GI50 (OVCAR-8 ovarian): < 0.01 µM
TGI (OVCAR-8 ovarian): 1.3 µM
GI50 (CCRF-CEM leukemia): < 0.01 µM
TGI (CCRF-CEM leukemia): 1.42 µM
GI50 (SK-OV-3 ovarian): < 0.01 µM
TGI (SK-OV-3 ovarian): 1.45 µM
GI50 (MDA-MB-231 breast): < 0.01 µM
TGI (MDA-MB-231 breast): 11.8 µM
GI50 (MDA-MB-468 breast): < 0.01 µM
TGI (MDA-MB-468 breast): 1.22 µM
GI50 (NCI-H522 lung): < 0.01 µM
TGI (NCI-H522 lung): 0.0106 µM
GI50 (MALME-3M melanoma): < 0.01 µM
TGI (MALME-3M melanoma): 0.268 µM
GI50 (NCI-H226 lung): < 0.01 µM
TGI (NCI-H226 lung): 10.3 µM
GI50 (SN12C renal): 1.21 µM
TGI (SN12C renal): 20.6 µM
GI50 (TK-10 renal): < 0.01 µM
TGI (TK-10 renal): 0.0908 µM
GI50 (NCI-H460 NSCLC): 0.354 µM
TGI (NCI-H460 NSCLC): 15.6 µM
GI50 (HS 578T breast): < 0.01 µM
TGI (HS 578T breast): 0.758 µM
GI50 (IGROV1 ovarian): < 0.01 µM
TGI (IGROV1 ovarian): 1.36 µM
GI50 ([…]-0 renal): 0.015 µM
TGI (786-0 renal): 11.7 µM
GI50 (NCI-H23 lung): < 0.01 µM
TGI (NCI-H23 lung): 3.35 µM
GI50 (ACHN renal): 0.0445 µM
TGI (ACHN renal): 12.2 µM
GI50 (RXF 393 renal): < 0.01 µM
TGI (RXF 393 renal): 0.155 µM
GI50 (COLO 205 colon): < 0.01 µM
TGI (COLO 205 colon): 0.331 µM
GI50 (SNB-75 CNS): 0.299 µM
TGI (SNB-75 CNS): 14 µM
GI50 (LOX IMVI melanoma): < 0.01 µM
TGI (LOX IMVI melanoma): 0.0113 µM
GI50 (NCI-H322M lung): 0.019 µM
TGI (NCI-H322M lung): 17.5 µM
GI50 (MCF7 breast): < 0.01 µM
TGI (MCF7 breast): 0.435 µM
GI50 (NCI/ADR-RES ovarian): 0.197 µM
TGI (NCI/ADR-RES ovarian): 8.56 µM
GI50 (EKVX NSCLC): 3.19 µM
TGI (EKVX NSCLC): 21.6 µM
GI50 (KM12 colon): < 0.01 µM
TGI (KM12 colon): 10.8 µM
GI50 (PC-3 prostate): < 0.01 µM
TGI (PC-3 prostate): 25 µM
GI50 (BT-549 breast): < 0.01 µM
TGI (BT-549 breast): 0.0727 µM
GI50 (M14 melanoma): < 0.01 µM
TGI (M14 melanoma): 15.7 µM
GI50 (MOLT-4 leukemia): < 0.01 µM
TGI (MOLT-4 leukemia): 0.211 µM
GI50 (SF-268 CNS): 0.0793 µM
TGI (SF-268 CNS): 16.8 µM
GI50 (OVCAR-4 ovarian): < 0.01 µM
TGI (OVCAR-4 ovarian): 0.0212 µM
GI50 (A498 renal): < 0.01 µM
TGI (A498 renal): 10.7 µM
GI50 (OVCAR-3 ovarian): < 0.01 µM
TGI (OVCAR-3 ovarian): 1.71 µM
GI50 (K-562 leukemia): < 0.01 µM
TGI (K-562 leukemia): 13.8 µM
GI50 (HL-60(TB) leukemia): < 0.01 µM
GI50 (SF-539 CNS): 0.0103 µM
TGI (SF-539 CNS): 0.0543 µM
GI50 (UO-31 renal): 0.0132 µM
TGI (UO-31 renal): 13.4 µM
GI50 (T-47D breast): 0.0137 µM
TGI (T-47D breast): 11.1 µM
GI50 (UACC-257 melanoma): < 0.01 µM
TGI (UACC-257 melanoma): 5.55 µM
GI50 (SNB-19 CNS): 0.032 µM
TGI (SNB-19 CNS): 20.3 µM
